Measurements published in US9435811B2, “Inducer of chondrocyte proliferation and differentiation” (ORIENTAL YEAST CO., LTD, priority 2008, dated 2016).
Positions of bridges follow the written chain, without caps; N, C: chain ends. No end group written: not given here.

T1: RANKL (Homo sapiens, UniProt O14788)
T1 sequence (O14788 140-317 limits assumed): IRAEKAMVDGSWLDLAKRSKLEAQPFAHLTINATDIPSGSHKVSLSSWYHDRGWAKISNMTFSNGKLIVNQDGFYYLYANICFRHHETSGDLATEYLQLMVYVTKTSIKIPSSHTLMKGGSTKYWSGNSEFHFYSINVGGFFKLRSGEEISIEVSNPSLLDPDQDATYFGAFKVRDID


How the values were obtained:
[1] = system: ATDC5 cells; experiment: GeneChip analysis using ATDC5 cells; assay type: cell-based, mouse; conditions: 100 μM peptide D, signal ratio to control group
Method: The peptide described in Example 1 was used. The ATDC5 cells described in Example 2 were used as cultured cells. The ATDC5 cells were seeded in a 6-cm dish (IWAKI) at 1×10^5 cells/well. The culture supernatant was removed 72 hours later, and DMEM/F-12 medium containing 10 ng/ml insulin (Roche) and 10 ng/ml transferrin (Roche) was added. The medium was replaced with fresh medium every 3 or 4 days.
Simultaneously, peptide D was added at 100 μM. The medium was removed 4 days and 7 days after the induction of differentiation. The cells were washed with PBS, and RNA of these cells was obtained using the Absolutely RNA Miniprep Kit (Stratagene) 7 days after the induction of differentiation. The extracted RNA was subjected to GeneChip analysis (Affimetrix, Kurabo).

[2] = system: human mesenchymal stem cells; experiment: Three-dimensional culture using human mesenchymal stem cells; assay type: cell-based
Method: Chondrocytes are three-dimensionally cultured induce […]. Three dimensional culture system relatively reflected the natural conditions. Human mesenchymal stem cells were seeded at 2.5×10^5 cells in 15-ml tubes (TPP) and the cells were collected by centrifuged at 1,000 rpm and room temperature for 4 minutes. The supernatant was removed and the medium was replaced with 0.5 ml chondrocyte differentiation induction medium (Lonza) with 10 ng/ml TGF-β3 (R&D). The medium was replaced with fresh medium every 3 or 4 days. Simultaneously, peptide D was added at 50 μM and at 150 μM (i.e., a low-dose peptide D group and a high-dose peptide D group). After 14 days, the cells were fixed in 4% PFA (Wako), photographed under a microscope (FIG. 8). A pellet was embedded in paraffin, and the sample slide was prepared, followed by alcian blue staining and safranin 0 staining (FIG. 9).
2.5×10^5 human mesenchymal stem cells were cultured in the presence of 40 μM peptide D and 10 ng/ml TGF-β3 with cartilage differentiation induction medium for 21 days. After the pellets were fixed in 4% PFA, the pellet was photographed under a microscope (FIG. 10). After the pellet had been embedded in paraffin, the sample slide was prepared and stained with alcian blue and safranin 0 (FIG. 11).
After the pellets were fixed in 4% PFA, the pellet was photographed under a microscope (FIG. 12). After the pellet had been embedded in paraffin, the sample slide was prepared and stained with alcian blue and safranin O (FIG. 13).

[3] = system: human mesenchymal stem cells; experiment: GeneChip analysis using human mesenchymal stem cells; assay type: cell-based; conditions: for aggrecan expression level: 10 ng/ml TGF-β3; for expression levels of Sox9 compared with the control group: 24 hours and 96 hours after the addition
Method: Human mesenchymal stem cells were seeded in a 6-well plate (Nunc) at 1×10^5 cells/well, the culture supernatant was discarded 96 hours later, and 2 ml of a cartilage differentiation induction medium was added. The control group, the 40 μM peptide D group, the 10 ng/ml TGF-β3 group, and the 40 μM peptide D+10 ng/ml TGFβ3 group were prepared. Each culture medium was replaced 24 hours after the stimulation. The cells were dissolved in 1 ml of TRIZOL (Invitrogen) 96 hours after the stimulation, and RNA was isolated. The isolated RNA was used for GeneChip analysis (Affimetrix, Kurabo).

[4] = system: human mesenchymal stem cells; experiment: Induction of human mesenchymal stem cell differentiation, alcian blue staining; assay type: cell-based; conditions: 100 μM peptide D, 14 days
Method: Human mesenchymal stem cells were seeded at 5×10^4 cells/well in 48-well plate (IWAKI). The culture supernatant was removed 24 hours later, the medium was replaced with a chondrocyte differentiation induction medium (Lonza), and the medium was replaced with fresh medium every 3 or 4 days. Simultaneously, peptide D was added at 100 μM (the group to which peptide D was administered). Further, a group cultured with 100 μM peptide D and 1 ng/ml BMP-4 (R&D) was examined. BMP-4 was added at 1 ng/ml as a positive control group. After 14 days, these cells were fixed in 10% neutral buffered formalin. After fixation, the cells were stained with an alcian blue solution for 4 hours, and the culture plate was photographed. Moreover the pigment was eluted using a 6M guanidinium hydrochloride solution from the culture plate. The eluate (100 μl) was moved to a new 96-well plate, and measured the absorbance at 620 nm by microplate reader (BMG Labtech).

[5] = molecular target: T1, RANKL; conditions: Aoki et al., J. Clin. Invest., 116: 1525, 2006; cited from earlier work
[6] = system: ATDC5 cells; experiment: RT-PCR analysis of chondrocytic factors in ATDC5 cells; assay type: cell-based, mouse; conditions: 200 μM peptide D
Method: Mouse prechondrocytes, ATDC5 cells (5×10^4 cells) were seeded in a 6-cm dish (IWAKI) and cultured in the presence of a cartilage differentiation induction medium containing 10 ng/ml insulin and transferrin for 7 days and for 14 days. The peptide D group was added at 200 μM peptide D, and 5 ng/ml of BMP-4 was added to the positive control group. The cells were washed with PBS after culture, the cells were dissolved in 1 ml TRIZOL […], and the solution was obtained. After 5 min at room temperature, 0.2 ml of chloroform (Wako) was added, followed by vigorous inversion mixing and centrifugation at 4° C. and 12,000×g for 15 minutes. The supernatant was collected in a new tube, and was added to 0.5 ml of isopropanol (Nacalai), followed by inversion mixing. The resultant was left at room temperature for 10 minutes and centrifuged at 4° C. and 12,000×g for 10 minutes. The supernatant was discarded, and the resultant was added to 70% ethanol. After dry-up, RNA was dissolved in 87.5 μl of DEPC water, 10 μl of RDD buffer and 2.5 μl of DNase, and the mixture was allowed to stand at room temperature for 10 minutes. The RNA sample was cleaned by the RNeasy MinElute Cleanup Kit (Qiagen), and the concentration of the obtained RNA was measured using NanoDrop. The obtained RNA (250 ng) was electrophoresed on 1% agarose gel, checked degradation of RNA, and undegradated RNA samples (250 ng each) were used in RT-PCR. RT-PCR was carried out using the ThermoScript RT-PCR System (Invitrogen) and random primers.
After cDNA was synthesized, PCR was carried out using primers specific for the α1 chains of mouse type II collagen (mCol 2α1), mouse type X collagen (mCol X), and mouse aggrecan (mAggrecan). PCR was carried out using mouse GAPDH-specific primers for standardization. The sequences of PCR primers used are shown below. […]
The sample obtained after PCR was electrophoresed on 2% agarose gel, and a specific band was detected by UV with the use of ethidium bromide staining (FIG. 3A and FIG. 4A). The obtained image was analyzed using the CSAnalyzer (ATTO).

[7] = system: ATDC5 cells; experiment: Induction of differentiation of ATDC5 cells by peptide D, alcian blue staining; assay type: cell-based, mouse; conditions: peptide D 25 μM and 100 μM, 14 days
Method: The culture cells (ATDC5) derived from a mouse chondrogenic EC (embryonal carcinoma) cell was provided by Professor Hiraki and Associate Professor Shukunami in the Institute for Frontier Medical Sciences, Kyoto University. DMEM/F-12 medium (Cellgro) containing 5% FBS (Nichirei) was used as a maintenance medium.
ATDC5 cells were seeded at 2×10^4 cells/well in a 48-well plate (IWAKI). The culture supernatant was removed 24 hours later, and DMEM/F-12 medium containing 10 ng/ml insulin (Roche) and transferrin (Roche) were added. The medium was replaced with fresh medium every 3 or 4 days.
Simultaneously, peptide D was added at 25 μM and 100 μM. One ng/ml and 5 ng/ml BMP-4 (R&D) were added as positive control. In order to examine the synergistic effects of peptide D and BMP-4, further, 25 μM peptide D and 1 ng/ml BMP-4 were added. After 14 days, these cells were fixed in 10% neutral buffered formalin. After fixation, the cells were stained with an alcian blue solution for 4 hours, and the culture plate was photographed.

[8] = peptide D 50 μM and 150 μM, medium with 10 ng/ml TGF-β3, 14 days
[9] = 24 hours after the addition, 40 μM peptide D
[10] = 96 hours after the addition, 40 μM peptide D

Molecule | expression level of BMP-7 [1] | expression levels of CTGF, PDGF, TGFβ1, fibromodulin and receptors (PDGFR1, FGFR2) [1] | expression levels of the α chains of type II, IX, and XI collagens [1] | expression of asporin, IGFbp2, IGFbp6, and ADAMTS5 [1] | alcian blue or safranin O staining of 3-dimensional pellets [2, 8] | pellet size [2, 8] | IGF2R and versican expression ([3]; 40 μM peptide D, 24 hours later) | IGF-1, LTBP2, and TGFβ1 expression levels ([3]; 40 μM peptide D, 96 hours later) | aggrecan expression level [3, 9] | expression levels of Sox9 compared with the control group [3] | aggrecan expression level [3, 10] | absorbance of the eluate at 620 nm (alcian blue pigment) versus control group [4] | alcian blue positive cells compared with control ([4]; chondrocyte differentiation induction medium) | binding to RANKL [5] | aggrecan expression level ([6]; day 7, standardized with GAPDH) | expression level of the α chain of type II collagen compared with the control ([6]; day 7, standardized with GAPDH) | expression level of type X collagen ([6]; day 14, standardized with GAPDH) | number of alcian blue positive nodules [7] | pellet size ([2]; 21 days, 40 μM peptide D, 10 ng/ml TGF-β3, 100 ng/ml BMP-2)
peptide D: cyclic peptide of 9 amino acid residues, SEQ ID NO: 7, two cysteine residues bound by a disulfide bond; binds to RANKL (YCWSQYLCY; disulfide 2-8 (inferred)) | increased | increased | increased | inhibited | positive stained | increased the pellet size in a dose dependent manner | elevated | elevated | elevated | elevated | elevated expression level was maintained | significant increase | increased | binds to RANKL | increased | significantly increased | particularly increased | increased in a dose dependent manner | 
TGF-β3: TGF-β3 (R&D), protein belonging to the TGF-β superfamily (protein, UniProt P10600 301-412, looked up) Transforming growth factor …: ALDTNYCFRNLEENCCVRPLYIDFRQDLGWKWVHEPKGYYANFCSGPCPYLRSADTTHSTVLGLYNTLNPEASASPCCVPQDLEPLTILYYVGRTPKVEQLSNMVVKSCKCS |  |  |  |  |  |  |  |  | equivalent to that of the control group | elevated | lower than that of the control group |  |  |  |  |  |  |  | did not change
